Patent publication US11679107B2 (Eisai R&D Management Co., Ltd., priority 2018, dated 2023)
Where two headings read alike, the source gives them in different places.

Legend:
[1] = in vivo; cited from earlier work
SF3b complexes = biological target: T1, SF3b complexes (Homo sapiens, UniProt O75533+Q7RTV0); assay: Scintillation proximity assay (SPA) with [3H]-labelled pladienolide probe; assay type: binding; conditions: SF3B1 (WT); geometric mean; read-out: SPA-ATS GMean IC50 (nM) SF3B1 (WT)
T1 construct: endogenous in cells; host or cells: Nuclear extracts; A HeLa S3 extract preparation is described for the in vitro splicing assay
In short: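 SF3b complexes captured from nuclear extracts on anti-SF3B1 antibody SPA beads; test compounds pre-incubated 30 min before 2.5 nM [3H]-pladienolide probe added, then 30 min incubation. Bound probe read by scintillation; values from non-linear regression of concentration–response curves.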

[2] = test system: Ad2 variant pre-mRNAs spliced in HeLa S3 nuclear extracts; assay: In vitro splicing assay (IVS), RT-qPCR of spliced product; assay type: biochemical; conditions: for IC50: geometric mean
In short: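 Read-out is one-step TaqMan RT-qPCR of spliced Ad2 mRNA with Ftz as reference, normalized to DMSO and fit by non-linear regression. Reactions held HeLa S3 nuclear extract, 2 ng Ad2-derived pre-mRNA and test compound, with 15 min preincubation. Splicing was started with ATP-containing activation buffer and run 90 min at 30 °C.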

[3] = test system: NCI-H1568 cells (high MCL1); assay: Cell proliferation and viability, CellTiter-Glo, 72 hours; assay type: cell-based; conditions: 72 h; for GI50: NCI-H1568, read-out: CTGlo-ATS GMean GI50 (nM) 72 h NCIH1568.1, geometric mean
In short: (§1)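 RPMI-1640/10% FBS (Panc: + insulin, FBS 15%); 11-pt half-log dose, ~10 μM-100 pM, 0.1% DMSO; 37° C, 5% CO2; ATP luminescence read; % inhibition vs T0 and vehicle, −100% cidal to 100% uninhibited growth.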

[4] = test system: Panc 05.04 cells (SF3b K700E mutant); assay: as above; assay type: cell-based; conditions: 72 h; for GI50: Panc 05.04, read-out: CTGlo-ATS GMean GI50 (nM) 72 h PANC0504.1, geometric mean
In short: as §1

[5] = Ad2.1 pre-mRNA substrate, read-out: qPCR-IVS-ATS GMean IC50 (nM) Ad2.1
[6] = Ad2.2 pre-mRNA substrate, read-out: qPCR-IVS-ATS GMean IC50 (nM) Ad2.2
[7] = NCIH1568.1 cells, −100% cidal, 0% static, 100% maximal growth
[8] = PANC0504.1 cells, −100% cidal, 0% static, 100% maximal growth

## tremelimumab
[1]
  plasma half-life: approximately 22 days

## C/C(=C\c1cc(F)c2cnn(CC#N)c2c1)[C@H]1OC(=O)C[C@H](O)CC[C@H](C)[C@@H](OC(=O)N2CCN(C)CC2)/C=C/[C@@H]1C [Compound 131]
SF3b complexes
  IC50: 4.04 nM
[2]; [5]
  IC50: 357 nM
[2]; [6]
  IC50: 45.8 nM
[3]; NCIH1568.1 cells
  GI50: 19.2 nM
[3]; [7]
  CTGlo-ATS Mean MinResponse % 72 h NCIH1568.1: −65.430%
[4]; [8]
  CTGlo-ATS Mean MinResponse % 72 h PANC0504.1: −94.995%
[4]; PANC0504.1 cells
  GI50: 27.1 nM

## C/C(=C\c1cc(F)cc(N2CCCC2=O)c1)[C@H]1OC(=O)C[C@H](O)CC[C@H](C)[C@@H](OC(=O)N2CCN(C)CC2)/C=C/[C@@H]1C [Compound 42]
SF3b complexes
  IC50: 2.92 nM
[2]; [5]
  IC50: 330 nM
[2]; [6]
  IC50: 12.6 nM
[3]; NCIH1568.1 cells
  GI50: 6.13 nM
[3]; [7]
  CTGlo-ATS Mean MinResponse % 72 h NCIH1568.1: −63.030%
[4]; [8]
  CTGlo-ATS Mean MinResponse % 72 h PANC0504.1: −86.319%
[4]; PANC0504.1 cells
  GI50: 4.76 nM

## C/C(=C\c1cc(F)cc(N2CCOCC2)c1)[C@H]1OC(=O)C[C@H](O)CC[C@H](C)[C@@H](OC(=O)NCCN(C)C)/C=C/[C@@H]1C [Compound 242, [(2S,3S,4E,6R,7S,10R)-2-[(E)-1-(3-fluoro-5-morpholin-4-ylphenyl)prop-1-en-2-yl]-10-hydroxy-3,7-dimethyl-12-oxo-1-oxacyclododec-4-en-6-yl] N-[2-(dimethylamino)ethyl]carbamate]
SF3b complexes
  IC50: 15.3 nM
[2]; [5]
  IC50: 7150 nM
[2]; [6]
  IC50: 62.1 nM
[2]; ratio of IVS IC50 Ad2.1 to Ad2.2
  Ratio Ad2.1/2.2: 115.051
[3]; NCIH1568.1, -100% = cidal, 0% = static, 100% = uninhibited growth
  CTGlo-ATS Mean MinResponse % 72 h NCIH1568.1: −65.744%
[3]; NCIH1568.1
  GI50: 180 nM
[4]; PANC0504.1, -100% = cidal, 0% = static, 100% = uninhibited growth
  CTGlo-ATS Mean MinResponse % 72 h PANC0504.1: −92.786%
[4]; PANC0504.1
  GI50: 68.9 nM
